Among the data in patent publication US9150569B2, “Nitrogen-containing heterocyclic compound having inhibitory effect on production of kynurenine” (KYOWA HAKKO KIRIN CO., LTD., priority 2010, dated 2015) are inhibition values, retold here.

This assay relates to production of kynurenine in KATO-III cells. The assay is described as follows: Inhibitory activity on the production of kynurenine (IFN-γ-treated KATO-III cells, kynurenine in the culture medium quantified by absorbance at 480 nm). The assay is classed as cell-based. The conditions noted are these: test compound at 10 μmol/L, human gastric cancer cell line KATO-III, 96 hours, read-out: inhibition rate (production of kynurenine). The protocol: This assay was performed by a modification of the method described in J. Biol. Chem., vol. 263, pp. 2041-2048 (1988). For culture of the human gastric cancer cell line KATO-III, RPMI 1640 (GIBCO, 11875) supplemented with 10 volt FBS (GIBCO, 10091-148, lot. 665285) was used. One μL of a test substance in a DMSO solution was diluted with 199 μL of the culture medium and placed in wells of a 384-well plate (10 μL/well). Next, IFN-γ (Sigma, 1-3265) was added to the culture medium to a concentration of 31.25 ng/mL, and KATO-III cells were suspended at 50,000 cells/mL in the culture medium. Forty μL of the suspension was added to each well (2,000 cells/well) and incubated under a 5% CO2 atmosphere at 37° C. for 96 hours. The final concentration of DMSO was limited to 0.1 volt or less so that DMSO itself may not affect the kynurenine concentration measured by this assay. After the incubation, 10 μL of a 30 w/vt aqueous trichloroacetic acid solution was added to each well, and incubation was performed at 65° C. for 30 minutes. The plate was centrifuged at 2,500×g for 5 minutes and 15μL of the supernatant in each well was transferred into another 384-well plate. To the transferred supernatant, 15 μL of a 2 w/vt solution of p-dimethylaminobenzaldehyde in acetic acid was added, incubation was performed at 65° C. for 20 minutes and the absorbance was measured at 480 nm.
Sample: the absorbance value of the well to which a DMSO solution containing a test substance was added and in which the cells were treated with IFN-γ.
Blank: the absorbance value of the well to which DMSO not containing a test substance was added and in which the cells were treated with IFN-γ.
Control: the absorbance value of the well to which DMSO not containing a test substance was added and in which the cells were not treated with IFN-γ.
In this assay, expression of IDO in KATO-III cells is induced by IFN-γ treatment and kynurenine in the culture medium is quantified. The kynurenine concentration in a culture medium is known to increase in proportion to the enzymatic activity of intracellular IDO (for example, J. Biol. Chem., vol. 263, pp. 2041-2048 ([…])). […] The production of kynurenine is known to be inhibited by IDO inhibitors (for example, J. Clin. Invest., vol. 117, No. 5, pp. 1147-1154 […]), and thus it is speculated that Compounds (I) also have an inhibitory effect on IDO.
On to `CCCCS(=O)(=O)Nc1nc2ccccc2nc1OC(c1ccncc1)C(F)(F)F` (centres unmarked) [Compound 46, N-(3-(2,2,2-trifluoro-1-(pyridin-4-yl)ethoxy)quinoxalin-2-yl)butane-1-sulfonamide], for which the inhibition at 10 µM was at least 80%. `CCCCC(Oc1nc2ccccc2nc1NS(=O)(=O)CCC)c1ccc[n+]([O-])c1` (centres unmarked) [Compound 12, 3-(1-(3-(propylsulfonamido)quinoxalin-2-yloxy)pentyl)pyridine 1-oxide]: the inhibition at 10 µM is at least 80%.

Regarding `CC(C)CS(=O)(=O)Nc1nc2ccccc2nc1OC(c1ccncc1)C(F)(F)F` (centres unmarked) [Compound 51, 2-methyl-N-(3-(2,2,2-trifluoro-1-(pyridin-4-yl)ethoxy)quinoxalin-2-yl)propane-1-sulfonamide], the inhibition at 10 µM was at least 80%. On to `C#Cc1ccc2nc(OC(c3cccnc3)C(F)(F)F)c(NS(=O)(=O)CCC)nc2c1` (centres unmarked) [Compound 79, N-(7-ethynyl-3-(2,2,2-trifluoro-1-(pyridin-3-yl)ethoxy)quinoxalin-2-yl)propane-1-sulfonamide], for which the inhibition at 10 µM was at least 80%.

In the case of `CCCS(=O)(=O)Nc1nc2ccccc2nc1OC(C)c1cccnc1` (centres unmarked) [Compound 19, N-(3-(1-(pyridin-3-yl)ethoxy)quinoxalin-2-yl)propane-1-sulfonamide], the inhibition at 10 µM is at least 80%.

Take `COCCS(=O)(=O)Nc1nc2ccccc2nc1OC(c1ccc(-c2cnn(C)n2)nc1)C(F)(F)F` (centres unmarked) [Compound 68A, 2-methoxy-N-(3-(2,2,2-trifluoro-1-(6-(2-methyl-2H-1,2,3-triazol-4-yl)pyridin-3-yl)ethoxy)quinoxalin-2-yl)ethanesulfonamide]: the inhibition at 10 µM is at least 80%.

For `CCCS(=O)(=O)Nc1nc2ccccc2nc1OC(c1ccnc(N(C)C(C)=O)c1)C(F)(F)F` (centres unmarked) [Compound 49, N-methyl-N-(4-(2,2,2-trifluoro-1-(3-(propylsulfonamido)quinoxalin-2-yloxy)ethyl)pyridin-2-yl)acetamide], the inhibition at 10 µM was at least 80%. Consider `CCCS(=O)(=O)Nc1nc2ccccc2nc1OC(c1ccc(S(C)(=O)=O)cc1)C(F)(F)F` (centres unmarked) [Compound 25, N-(3-(2,2,2-trifluoro-1-(4-(methylsulfonyl)phenyl)ethoxy)quinoxalin-2-yl)propane-1-sulfonamide], for which the inhibition at 10 µM is at least 80%.

Take `CCCCS(=O)(=O)Nc1nc2ccccc2nc1OC(c1ccc(S(C)(=O)=O)nc1)C(F)(F)F` (centres unmarked) [Compound 40, N-(3-(2,2,2-trifluoro-1-(6-(methylsulfonyl)pyridin-3-yl)ethoxy)quinoxalin-2-yl)butane-1-sulfonamide]: the inhibition at 10 µM is at least 80%. For the molecule `COCCS(=O)(=O)Nc1nc2ccccc2nc1OC(c1ccc(-c2cnco2)nc1)C(F)(F)F` (centres unmarked) [Compound 73, 2-methoxy-N-(3-(2,2,2-trifluoro-1-(6-(oxazol-5-yl)pyridin-3-yl)ethoxy)quinoxalin-2-yl)ethanesulfonamide], the inhibition at 10 µM was at least 80%. To `CCCS(=O)(=O)Nc1nc2ccccc2nc1OC(c1ccc2c(c1)OCCO2)C(F)(F)F` (centres unmarked) [Compound 48, N-(3-(1-(2,3-dihydrobenzo[b][1,4]dioxin-6-yl)-2,2,2-trifluoroethoxy)quinoxalin-2-yl)propane-1-sulfonamide] belongs at least 80%; to `CCCS(=O)(=O)Nc1nc2ccccc2nc1OC(c1cnc(C)n1C)C(F)(F)F` (centres unmarked) [Compound 70, N-(3-(1-(1,2-dimethyl-1H-imidazol-5-yl)-2,2,2-trifluoroethoxy)quinoxalin-2-yl)propane-1-sulfonamide], at least 80%; to `CCCS(=O)(=O)Nc1nc2ccccc2nc1OC(c1ccc[n+]([O-])c1)C1(C)CC1` (centres unmarked) [Compound 14, 3-((1-methylcyclopropyl)(3-(propylsulfonamido)quinoxalin-2-yloxy)methyl)pyridine 1-oxide], at least 80%. To `CCCS(=O)(=O)Nc1nc2ccccc2nc1OC(c1ccc(CO)nc1)C(F)(F)F` (centres unmarked) [Compound 31, N-(3-(2,2,2-trifluoro-1-(6-(hydroxymethyl)pyridin-3-yl)ethoxy)quinoxalin-2-yl)propane-1-sulfonamide] belongs at least 80%; to `CCCS(=O)(=O)Nc1nc2ccccc2nc1OC(c1cnc(C(C)=O)s1)C(F)(F)F` (centres unmarked) [Compound 71, N-(3-(1-(2-acetylthiazol-5-yl)-2,2,2-trifluoroethoxy)quinoxalin-2-yl)propane-1-sulfonamide], at least 80%.

As for `COCCS(=O)(=O)Nc1nc2ccccc2nc1OC(c1ccc(-c2ccnn2C)nc1)C(F)(F)F` (centres unmarked) [Compound 67, 2-methoxy-N-(3-(2,2,2-trifluoro-1-(6-(1-methyl-1H-pyrazol-5-yl)pyridin-3-yl)ethoxy)quinoxalin-2-yl)ethanesulfonamide], the inhibition at 10 µM was at least 80%.

On to `CCCCS(=O)(=O)Nc1nc2ccccc2nc1OC(c1ccc([S+](C)[O-])nc1)C(F)(F)F` (centres unmarked) [Compound 41, N-(3-(2,2,2-trifluoro-1-(6-(methylsulfinyl)pyridin-3-yl)ethoxy)quinoxalin-2-yl)butane-1-sulfonamide], for which the inhibition at 10 µM is at least 80%. Then `CCCS(=O)(=O)Nc1nc2ccccc2nc1OC(c1ccnc(-n2ccnc2)c1)C(F)(F)F` (centres unmarked) [Compound 54, N-(3-(1-(2-(1H-imidazol-1-yl)pyridin-4-yl)-2,2,2-trifluoroethoxy)quinoxalin-2-yl)propane-1-sulfonamide], with at least 80%; and `CCCS(=O)(=O)Nc1nc2ccccc2nc1OC(CC)c1ccc[n+]([O-])c1` (centres unmarked) [Compound 16, 3-(1-(3-(propylsulfonamido)quinoxalin-2-yloxy)propyl)pyridine 1-oxide], with at least 80%; and `CCCS(=O)(=O)Nc1nc2ccccc2nc1OC(c1ccc(-c2cnn(C)c2)nc1)C(F)(F)F` (centres unmarked) [Compound 32, N-(3-(2,2,2-trifluoro-1-(6-(1-methyl-1H-pyrazol-4-yl)pyridin-3-yl)ethoxy)quinoxalin-2-yl)propane-1-sulfonamide], with at least 80%. To `CCCS(=O)(=O)Nc1nc2ccccc2nc1OC(c1ccc(-c2cnn(C)n2)nc1)C(F)(F)F` (centres unmarked) [Compound 64A, N-(3-(2,2,2-trifluoro-1-(6-(2-methyl-2H-1,2,3-triazol-4-yl)pyridin-3-yl)ethoxy)quinoxalin-2-yl)propane-1-sulfonamide] belongs at least 80%; to `CCCS(=O)(=O)Nc1nc2ccccc2nc1OC(c1ccnc(C#N)c1)C(F)(F)F` (centres unmarked) [Compound 44, N-(3-(1-(2-cyanopyridin-4-yl)-2,2,2-trifluoroethoxy)quinoxalin-2-yl)propane-1-sulfonamide], at least 80%; to `CCCCS(=O)(=O)Nc1nc2ccccc2nc1OC(c1cc[n+]([O-])cc1)C(F)(F)F` (centres unmarked) [Compound 47, 4-(1-(3-(butylsulfonamido)quinoxalin-2-yloxy)-2,2,2-trifluoroethyl)pyridine 1-oxide], at least 80%. Then `CCCS(=O)(=O)Nc1nc2ccccc2nc1OC(c1ccc(C#N)nc1)C(F)(F)F` (centres unmarked) [Compound 26, N-(3-(1-(6-cyanopyridin-3-yl)-2,2,2-trifluoroethoxy)quinoxalin-2-yl)propane-1-sulfonamide], with at least 80%; and `CCCS(=O)(=O)Nc1nc2ccccc2nc1OC(c1cccnc1)C(C)(C)C` (centres unmarked) [Compound 3, N-(3-(2,2-dimethyl-1-(pyridin-3-yl)propoxy)quinoxalin-2-yl) propane-1-sulfonamide], with at least 80%; and `CCCS(=O)(=O)Nc1nc2cc(I)ccc2nc1OC(c1cccnc1)C(F)(F)F` (centres unmarked) [Compound 77, N-(7-iodo-3-(2,2,2-trifluoro-1-(pyridin-3-yl)ethoxy)quinoxalin-2-yl)propane-1-sulfonamide], with at least 80%. For the molecule `COCCS(=O)(=O)Nc1nc2ccccc2nc1OC(c1ccc(-n2ccnc2C)nc1)C(F)(F)F` (centres unmarked) [Compound 69, 2-methoxy-N-(3-(2,2,2-trifluoro-1-(6-(2-methyl-1H-imidazol-1-yl)pyridin-3-yl)ethoxy)quinoxalin-2-yl)ethanesulfonamide], the inhibition at 10 µM is at least 80%.

As for `CCCC(Oc1nc2ccccc2nc1NS(=O)(=O)CCC)c1cccnc1` (centres unmarked) [Compound 21, N-(3-(1-(pyridin-3-yl)butoxy)quinoxalin-2-yl)propane-1-sulfonamide], the inhibition at 10 µM was at least 80%. Then `O=S(=O)(CC1CC1)Nc1nc2ccccc2nc1OC(c1ccc2nccn2c1)C(F)(F)F` (centres unmarked) [Compound 30, 1-cyclopropyl-N-(3-(2,2,2-trifluoro-1-(imidazo[1,2-a]pyridin-6-yl)ethoxy)quinoxalin-2-yl)methanesulfonamide], with at least 80%.

Usually inhibition stands for the relative decrease from the control value, in per cent.
